Experiment in all cases: MIC determination, broth microdilution
Holding throughout (type): cell-based

The subject of test [1] is A. baumannii 19606. Particulars: Acinetobacter baumannii, 37° C., 18-24 hours, read-out: Strain8 MIC. Here is the method:
(§1) Compounds of this invention were tested for antimicrobial activity by determining minimum inhibitory concentrations (MICs, in μg/mL) using the broth microdilution method according to the guidelines of the Clinical Laboratories and Standards Institute (“Methods for Dilution Antimicrobial Susceptibility Tests for Bacteria that Grow Aerobically”, Approved standard, 7th ed., Clinical and Laboratory Standards Institute (CLSI) Document M7-A8, Wayne, Pa., USA, 2009.). Test compounds were dissolved in DMSO. The compounds were then diluted in microbial growth medium (Mueller Hinton Broth II, cation adjusted) resulting in a final concentration range of 0.063-64 μg/mL in serial two-fold dilution. In all cases the final DMSO concentration was less than 0.5%. Bacteria were added to 96-well microtitre plates containing the two-fold dilutions of the compounds; the final cell density was approximately 5×10^5 colony forming units/mL (CFU/mL). Plates were incubated at 37° C. for 18-24 hours and read visually. The MIC, i.e. the lowest concentration of the test compound that inhibited visible growth of the bacteria, was recorded. The same assay conditions were used when the compounds of this invention were tested in combination with—lactamase inhibitors. While the compounds of this invention were serially diluted as described above, a constant concentration of the inhibitor of 4 mg/L was used. Bacterial strains that were used to evaluate the antimicrobial activity using the MIC determination included but were not limited to E. coli clinical isolate, E. coli 8739, K. pneumoniae clinical isolate, K. pneumoniae 700603, E. cloacae clinical isolate, E. cloacae 700323, A. baumannii clinical isolate, A. baumannii 19606, P. aeruginosa clinical isolate, P. aeruginosa 9027.

Test [2] relates to A. baumannii clinical isolate. Particulars: Acinetobacter baumannii, 37° C., 18-24 hours, read-out: Strain 7 MIC. Here is the method: as §1
For test [3], the system named is E. cloacae 700323. Particulars: Enterobacter cloacae, 37° C., 18-24 hours, read-out: Strain 6 MIC. As to the method: as §1
In test [4] the test system is E. cloacae clinical isolate. Particulars: Enterobacter cloacae, 37° C., 18-24 hours, read-out: Strain5 MIC. Here is the method: as §1
For test [5], the system named is E. coli 8739. Particulars: Escherichia coli, 37° C., 18-24 hours, read-out: Strain 2 MIC. Here is the method:
as §1

Test [6] has as its system E. coli clinical isolate. Particulars: Escherichia coli, 37° C., 18-24 hours, read-out: Strain 1 MIC. As to the method:
as §1

Test [7] relates to K. pneumoniae 700603. The note with it: Klebsiella pneumoniae, 37° C., 18-24 hours, read-out: Strain 4 MIC. As to the method:
as §1

For test [8], the system named is K. pneumoniae clinical isolate. Particulars: Klebsiella pneumoniae, 37° C., 18-24 hours, read-out: Strain 3 MIC. As to the method:
as §1

Test [9] relates to P. aeruginosa 9027. The note with it: Pseudomonas aeruginosa, 37° C., 18-24 hours, read-out: Strain 10 MIC. Here is the method: as §1
The test system of test [10] is P. aeruginosa clinical isolate. Particulars: Pseudomonas aeruginosa, 37° C., 18-24 hours, read-out: Strain 9 MIC. Here is the method:
as §1

Experimental findings from patent US20230295149A1, “MONOBACTAM COMPOUNDS, THEIR PREPARATION AND USE AS ANTIBACTERIAL AGENTS” (NINGXIA ACADEMY OF AGRICULTURE AND FORESTRY SCIENCES, priority 2020, published 2023) are described below.

With `C[C@H]1[C@H](NC(=O)/C(=N\OC(C)(C)C(=O)O)c2csc(N)n2)C(=O)N1S(=O)(=O)O` [AZT, Aztreonam, reference compound], the MIC in test [1] was 32 µg/mL; in [2], above 64 µg/mL; in test [3], above 64 µg/mL; in test [4] it was above 64 µg/mL; in test [5], 16 µg/mL; in test [6], above 64 µg/mL. The MIC was 64 µg/mL in [7], 64 µg/mL in test [8], 16 µg/mL in test [9] and above 64 µg/mL in test [10].
In the case of `CC(C)(O/N=C(\C(=O)N[C@@H]1C(=O)N2C(C(=O)[O-])=C(C[n+]3ccccc3)CS[C@H]12)c1csc(N)n1)C(=O)O` [CAZ, Ceftazidime, reference compound], the MIC in test [1], in [2], in test [3], in test [4], in test [5] and in test [6] was above 64 µg/mL throughout. Further, the MIC in test [7], in test [8], in test [9] and in test [10] was above 64 µg/mL in each case.
Consider `CC1(C)[C@H](NC(=O)/C(=N\O[C@@H](COc2ccc(C(=N)NC3CCNCC3)cc2)C(=O)O)c2nc(N)sc2Cl)C(=O)N1OS(=O)(=O)O` [Example 1, (S)-2-((((Z)-1-(2-Amino-5-chlorothiazol-4-yl)-2-(((S)-2,2-dimethyl-4-oxo-1-(sulfooxy)azetidin-3-yl)amino)-2-oxoethylidene)amino)oxy)-3-(4-(N-(piperidin-4-yl)carbamimidoyl)phenoxy)propanoic acid], for which the minimal inhibitory concentration (MIC) in test [1] is 8 µg/mL; in test [2], 16 µg/mL; in test [3] it was 8 µg/mL; in test [4] it was 8 µg/mL; in [5] it was 1 µg/mL; in [6], 8 µg/mL. The MIC amounted to 8 µg/mL in test [7], 4 µg/mL in test [8], 2 µg/mL in [9] and 2 µg/mL in [10].
On to `CC1(C)[C@H](NC(=O)/C(=N\O[C@@H](COc2ccc(C(=N)NC3CCNCC3)cc2)C(=O)O)c2nsc(N)n2)C(=O)N1OS(=O)(=O)O` [Example 2, (S)-2-((((Z)-1-(5-Amino-1,2,4-thiadiazol-3-yl)-2-(((S)-2,2-dimethyl-4-oxo-1-(sulfooxy)azetidin-3-yl)amino)-2-oxoethylidene)amino)oxy)-3-(4-(N-(piperidin-4-yl)carbamimidoyl)phenoxy)propanoic acid], for which the minimal inhibitory concentration (MIC) was found to be 32 µg/mL in [1]; 8 µg/mL in test [2]; 64 µg/mL in [3]; 8 µg/mL in test [4]; 0.125 µg/mL in test [5]; 0.5 µg/mL in test [6]. The MIC in test [7] was determined as 64 µg/mL; in test [8], 16 µg/mL; in [9] it was 1 µg/mL; in [10], 1 µg/mL.
As for `CC1(C)[C@H](NC(=O)/C(=N\O[C@@H](COc2ccc(C(=N)N[C@@H]3CCCNC3)cc2)C(=O)O)c2nc(N)sc2Cl)C(=O)N1OS(=O)(=O)O` [Example 3, (S)-2-((((Z)-1-(2-Amino-5-chlorothiazol-4-yl)-2-(((S)-2,2-dimethyl-4-oxo-1-(sulfooxy)azetidin-3-yl)amino)-2-oxoethylidene)amino)oxy)-3-(4-(N—((R)-piperidin-3-yl)carbamimidoyl)phenoxy)propanoic acid], the MIC amounted to 8 µg/mL in [1]; 16 µg/mL in test [2]; 8 µg/mL in [3]; 8 µg/mL in test [4]; 0.5 µg/mL in [5]; 2 µg/mL in [6]. Also, the MIC in [7] amounted to 8 µg/mL; in [8], 2 µg/mL; in test [9], 1 µg/mL; in test [10], 4 µg/mL.
As for `CC1(C)[C@H](NC(=O)/C(=N\O[C@@H](COc2ccc(C(=N)N[C@@H]3CCCNC3)cc2)C(=O)O)c2nsc(N)n2)C(=O)N1OS(=O)(=O)O` [Example 4, (S)-2-((((Z)-1-(5-Amino-1,2,4-thiadiazol-3-yl)-2-(((S)-2,2-dimethyl-4-oxo-1-(sulfooxy)azetidin-3-yl)amino)-2-oxoethylidene)amino)oxy)-3-(4-(N—((R)-piperidin-3-yl)carbamimidoyl)phenoxy)propanoic acid], the MIC came out at 16 µg/mL in [1]; 8 µg/mL in [2]; 64 µg/mL in test [3]; 16 µg/mL in test [4]; 0.25 µg/mL in test [5]; 0.25 µg/mL in test [6]. Further, the minimal inhibitory concentration (MIC) in test [7] was determined as 64 µg/mL; in test [8], 8 µg/mL; in [9], 1 µg/mL; in test [10], 2 µg/mL.
`CC1(C)[C@H](NC(=O)/C(=N\O[C@@H](COc2ccc(C(=N)N[C@H]3CCNC3)cc2)C(=O)O)c2nc(N)sc2Cl)C(=O)N1OS(=O)(=O)O` [Example 5, (S)-2-((((Z)-1-(2-Amino-5-chlorothiazol-4-yl)-2-(((S)-2,2-dimethyl-4-oxo-1-(sulfooxy)azetidin-3-yl)amino)-2-oxoethylidene)amino)oxy)-3-(4-(N—((S)-pyrrolidin-3-yl)carbamimidoyl)phenoxy)propanoic acid]: the MIC in [1] worked out at 4 µg/mL; in test [2] it was 8 µg/mL; in [3], 4 µg/mL; in [4] it was 2 µg/mL; in [5] it was 0.25 µg/mL; in test [6] it was 0.25 µg/mL. In addition, the MIC was 4 µg/mL in test [7], 1 µg/mL in test [8], 0.5 µg/mL in test [9] and 1 µg/mL in test [10].
On to `CC1(C)[C@H](NC(=O)/C(=N\O[C@@H](COc2ccc(C(=N)N[C@H]3CCNC3)cc2)C(=O)O)c2nsc(N)n2)C(=O)N1OS(=O)(=O)O` [Example 6, (S)-2-((((Z)-1-(5-Amino-1,2,4-thiadiazol-3-yl)-2-(((S)-2,2-dimethyl-4-oxo-1-(sulfooxy)azetidin-3-yl)amino)-2-oxoethylidene)amino)oxy)-3-(4-(N—((S)-pyrrolidin-3-yl)carbamimidoyl)phenoxy)propanoic acid], for which the MIC in test [1] stood at 16 µg/mL; in test [2], 4 µg/mL; in test [3] it was 32 µg/mL; in test [4] it was 4 µg/mL; in test [5], 0.125 µg/mL; in test [6], 0.5 µg/mL. Moreover, the minimum inhibitory concentration (MIC) turned out to be 64 µg/mL in [7], 1 µg/mL in test [8], 0.5 µg/mL in test [9] and 2 µg/mL in [10].
Consider `CC1(C)[C@H](NC(=O)/C(=N\O[C@@H](COc2ccc(C(=N)NC3CNC3)cc2)C(=O)O)c2nsc(N)n2)C(=O)N1OS(=O)(=O)O` [Example 7, (S)-2-((((Z)-1-(5-Amino-1,2,4-thiadiazol-3-yl)-2-(((S)-2,2-dimethyl-4-oxo-1-(sulfooxy)azetidin-3-yl)amino)-2-oxoethylidene)amino)oxy)-3-(4-(N-(azetidin-3-yl)carbamimidoyl)phenoxy)propanoic acid], for which the minimal inhibitory concentration (MIC) was 8 µg/mL in test [1]; 4 µg/mL in test [2]; 16 µg/mL in test [3]; 8 µg/mL in test [4]; 0.25 µg/mL in test [5]; 0.125 µg/mL in [6]. The minimum inhibitory concentration (MIC) was found to be 32 µg/mL in [7], 2 µg/mL in test [8], 0.5 µg/mL in [9] and 0.5 µg/mL in test [10].
Consider `CC1(C)[C@H](NC(=O)/C(=N\O[C@@H](COc2ccc(C(=N)NC3CNC3)cc2)C(=O)O)c2nc(N)sc2Cl)C(=O)N1OS(=O)(=O)O` [Example 8, (S)-2-((((Z)-1-(2-Amino-5-chlorothiazol-4-yl)-2-(((S)-2,2-dimethyl-4-oxo-1-(sulfooxy)azetidin-3-yl)amino)-2-oxoethylidene)amino)oxy)-3-(4-(N-(azetidin-3-yl)carbamimidoyl)phenoxy)propanoic acid], for which the MIC in [1] is 4 µg/mL; in test [2] it was 8 µg/mL; in test [3], 8 µg/mL; in [4] it was 8 µg/mL; in test [5], 0.25 µg/mL; in [6], 0.5 µg/mL. Further, the MIC in test [7] was determined as 8 µg/mL; in test [8], 8 µg/mL; in test [9], 1 µg/mL; in test [10] it was 1 µg/mL.
